Test system: seedlings
Test: Preliminary and greenhouse tests of 1-octen-3-ol on plant growth
Assay type: in vivo
Source text: These endophytic microorganisms frequently are fully symbiotic with plants (Harman, Howell, et al., 2004). These endophytic symbionts have abilities to induce multiple beneficial effects in plants, including induced resistance to diseases and potentially other pests; resistance to abiotic stresses such as drought, salt and flooding; improved efficiency of uses of nitrogen and other plant nutrients; enhancement of seed germination and seedling vigor; and enhanced plant growth and development. There are numerous diverse genera of microbes that induce at least most of these changes in plant performance, including mycorrhizae, plant growth promoting rhizobacteria, and Basidomycetous fungi in the Sebaciles such as Piriformaspora indica. These organisms have an endophytic versus a plant pathogenic life style (Shoresh, Mastouri, et al., 2010) typical of numerous other plant-associated microorganisms. The systemic changes in plant gene expression are presumed to be induced by the production of specific triggering metabolites from these different organisms. […]
Unexpected is the effect of the OMEGA biorational seed treatments that contain the fungal metabolite 1-octen-3-ol, yeast extract and humic acid (Leonardite shale). […] Thus the quantities applied are very small and cannot grow or proliferate on or in plants so their effects were expected to be transitory. […]

SMILES: C=CC(O)CCCCC (centres unmarked) [1-octen-3-ol]
- seedling growth (greenhouse, 200 to 20,000 pL in different formulations, data not shown): plant growth promotive effects on seedling growth
- plant growth (very low concentrations, preliminary work): strongly enhances plant growth

Source: patent US11477952B2, “Endophytic microbial seed treatment formulations and methods related thereto for improved plant performance” (ADVANCED BIOLOGICAL MARKETING, INC., priority 2017, dated 2022)
